Source: patent US20080206332A1, “SUSTAINED RELEASE ORAL DOSAGE FORMS OF A PRODRUG OF R-BACLOFEN AND METHODS OF TREATMENT” (priority 2007, published 2008)

Legend:
[1] = in vivo; cited from earlier work
[2] = clinical trials (Castell et al.); cited from earlier work
[3] = dosed either orally or directly into the colon of a mammal; cited from earlier work
[4] = 2 mg t.i.d. R-baclofen equivalent to racemic baclofen 10 mg t.i.d.; cited from earlier work
[5] = Pharmacokinetics of R-baclofen in dogs after oral dosage forms of compound (1); design: species or system Beagle dogs; conditions: dog, in vivo, iv, 10 mg-eq/kg R-baclofen administered intravenously
Procedure: The dogs were fasted overnight before the study and for 4 hours post-dosing. Blood samples (1 mL) were obtained via the femoral vein at intervals over 24 hours after oral dosing. Blood was quenched immediately using acetonitrile with 1% formic acid and then frozen at −20° C. until analyzed.
The concentration of R-baclofen in quenched whole blood was determined using an API 2000 LC/MS/MS instrument equipped with a Shimadzu binary pump and a Leap CTC autosampler. A Phenomenex Hydro-RP 4.6×50 mm column operating at room temperature was used. The mobile phases were (A) water with 0.1% formic acid, and (B) acetonitrile with 0.1% formic acid. The gradient condition was: 5% B for 0.5 min, then to 95% B in 1.8 min; then maintained at 95% B for 1.2 min. The mobile phase was then returned to 5% B for 2 min. A TurbolonSpray source was used on the API 2000. The analysis was done in positive ion mode and an MRM transition of m/z 214/151 was used in the analysis of R-baclofen. Ten (10) μL of the blood sample was injected. The peaks were integrated using Analyst™ Software ([…]) to provide the concentration of R-baclofen in the blood sample.
Pharmacokinetic profiles of sustained release oral dosage forms prepared according to Examples 1-4 at a dose of 10 mg compound (1) following oral administration to dogs is shown in FIG. 5.

For `NCC(CC(=O)O)c1ccc(Cl)cc1` (racemic) [baclofen, (±)-4-Amino-3-(4-chlorophenyl)butanoic acid], the elimination half-life [1] is given as 3 to 4 h.

In the case of `CC(C)C(=O)O[C@@H](OC(=O)NC[C@H](CC(=O)O)c1ccc(Cl)cc1)C(C)C` [Compound (1), (3R)-4-{[(1S)-2-methyl-1-(2-methylpropanoyloxy)propoxy]carbonylamino}-3-(4-chlorophenyl)butanoic acid], the “reflux episodes in clinical trials” value [2] is given as “reduce reflux episodes” and the “bioavailability as R-baclofen” value [3] is given as “high bioavailability”.

For `NC[C@H](CC(=O)O)c1ccc(Cl)cc1` [R-baclofen, R-(−)-baclofen], the “potency of orally administered R-baclofen relative to orally administered racemic baclofen” value [4] is given as “about 5 times” and the AUC(0-inf) [5] is given as 1980 ng·h/mL.
